In patent publication US20230242544A1, “QUINAZOLINE COMPOUNDS, PREPARATION METHODS AND USES THEREOF” (INVENTISBIO CO., LTD., priority 2020, published 2023):

Tests used:
[1] = target: recombinant human KRAS^G12D protein (Homo sapiens, UniProt P01116, G12D); assay: Temperature-dependent Fluorescence (TdF) KRAS G12D protein binding assay; conditions: 6 μM KRAS^G12D protein, 10 μM compound, Sypro Orange; Kd calculated from the fluorescent shift
Outline: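 Thermal-shift binding with Sypro Orange: 6 μM KRAS^G12D and 10 μM compound in 25 mM HEPES pH 7.5, 150 mM NaCl, 10 mM MgCl2, 1% DMSO. Binding read as ΔTm with versus without compound; Kd calculated from the degree of fluorescence shift.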

Ba/F3_KRAS^G12D cells = Ba/F3_KRAS^G12D cells (Homo sapiens, UniProt P01116, G12D, cells depend on it); assay: Ba/F3 KRAS G12D cell proliferation assay (CellTiter-Glo); format: cell-based; conditions: treated for 3 days, cell-titer Glo, cell growth inhibition, read-out: BaF3_KRAS^G12D IC50
Outline: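 KRAS G12D-transduced Ba/F3 cells, IL3-independent and puromycin-selected, seeded at 5×10^3/well overnight, then given serially diluted compound for 3 days. Proliferation read by CellTiter-Glo luminescence. IC50 from a four-parameter logistic fit with Hill slope.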

Chain of Ba/F3_KRAS^G12D cells (P01116 whole entry G12D): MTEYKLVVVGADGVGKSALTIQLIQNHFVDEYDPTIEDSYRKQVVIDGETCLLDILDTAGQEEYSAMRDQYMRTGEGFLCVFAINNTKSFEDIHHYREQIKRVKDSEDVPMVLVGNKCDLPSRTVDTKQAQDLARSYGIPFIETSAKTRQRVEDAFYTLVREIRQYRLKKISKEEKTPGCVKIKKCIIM
Chain of recombinant human KRAS^G12D protein (P01116 1-188 isoform P01116-2 G12D): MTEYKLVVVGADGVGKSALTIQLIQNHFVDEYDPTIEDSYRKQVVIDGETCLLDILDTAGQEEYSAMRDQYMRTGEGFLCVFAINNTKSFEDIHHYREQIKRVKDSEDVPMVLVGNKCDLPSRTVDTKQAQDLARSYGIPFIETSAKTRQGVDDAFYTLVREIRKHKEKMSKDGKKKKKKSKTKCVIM

Row | SMILES | Kd [1] | GI50 (Ba/F3_KRAS^G12D cells)
1 | C#Cc1c(F)ccc2cc(O)cc(-c3cc(Cl)c4c(N5CC6CCC(C5)N6)nc(OC[C@@]56CCCN5C[C@H](F)C6)nc4c3F)c12 [Compound 168] | < 500 nM | < 500 nM
2 | CN1CCC[C@H]1COc1nc(N2CC3CCC(C2)N3)c2cc(Cl)c(-c3c(O)cccc3F)c(F)c2n1 [Compound 4] | 500 to 5000 nM | > 5000 nM
3 | Cc1cc(F)c2sc(N)nc2c1-c1c(Cl)cc2c(N3CC4CCC(C3)N4)nc(OC[C@@]34CCCN3C[C@H](F)C4)nc2c1F [Compound 100] | < 500 nM | 500 to 5000 nM
4 | CN(C)CCCOc1nc(N2CC3CCC(C2)N3)c2cc(Cl)c(-c3cc(O)cc4ccccc34)c(F)c2n1 [Compound 5] | 500 to 5000 nM | 500 to 5000 nM
5 | Oc1cc(-c2c(Cl)cc3c(N4CC5CCC(C4)N5)nc(OCC45CCCN4CCC5)nc3c2F)c2c(Cl)cccc2c1 [Compound 61] | < 500 nM | 500 to 5000 nM
6 | CN1CCC(c2nc(N3CC4CCC(C3)N4)c3cc(Cl)c(-c4cc(O)cc5ccccc45)c(F)c3n2)CC1 [Compound 60] | > 5000 nM | 500 to 5000 nM
7 | N#Cc1cc2c(N3CC4CCC(C3)N4)nc(OC[C@@]34CCCN3C[C@H](F)C4)nc2c(F)c1-c1cc(O)cc2cccc(Cl)c12 (single isomer, unassigned) [Compound 119] | > 5000 nM | 500 to 5000 nM
8 | Nc1cccc(F)c1-c1c(Cl)cc2c(N3CC4CCC(C3)N4)nc(OCC34CCCN3CCC4)nc2c1F [Compound 32] | 500 to 5000 nM | > 5000 nM
9 | Oc1cc(-c2c(Cl)cc3c(N4CC5CCC(C4)N5)nc(OCCN4CCC(O)C4)nc3c2F)c2ccccc2c1 (centres unmarked) [Compound 46] | 500 to 5000 nM | > 5000 nM
10 | Oc1cc(-c2c(OCC3CC3)cc3c(N4CC5CCC(C4)N5)nc(OC[C@@]45CCCN4C[C@H](F)C5)nc3c2F)c2c(Cl)cccc2c1 [Compound 124] | < 500 nM | < 500 nM
11 | N#Cc1cc2c(N3CC4CCC(C3)N4)nc(OC[C@@]34CCCN3C[C@H](F)C4)nc2c(F)c1-c1cc(O)cc2ccc(F)c(Cl)c12 [Compound 129] | < 500 nM | < 500 nM
12 | CN1CC(COc2nc(N3CC4CCC(C3)N4)c3cc(Cl)c(-c4cc(O)cc5ccccc45)c(F)c3n2)CC(F)(F)C1 (centres unmarked) [Compound 50] | 500 to 5000 nM | 500 to 5000 nM
13 | Oc1cc(-c2c(Cl)cc3c(N4CC5CCC(C4)N5)nc(OC[C@@]45CCCN4C[C@H](F)C5)nc3c2F)c2c(Cl)c(F)ccc2c1 (single isomer, unassigned) [Compound 139] | < 500 nM | < 500 nM
14 | Oc1cc(-c2c(Cl)cc3c(N4CC5CCC(C4)N5)nc(OC[C@@]45CCCN4C[C@H](F)C5)nc3c2F)c2c(Cl)cccc2c1 (single isomer, unassigned) [Compound 103] | < 500 nM | < 500 nM
15 | Oc1cc(-c2c(Cl)cc3c(N4CC5CCC(C4)N5)nc(OC[C@]45CCCN4C[C@@H](F)C5)nc3c2F)c2c(Cl)cccc2c1 (single isomer, unassigned) [Compound 102] | > 5000 nM | 500 to 5000 nM
16 | Nc1nc2c(-c3c(Cl)cc4c(N5CC6CCC(C5)N6)nc(OC[C@@]56CCCN5C[C@H](F)C6)nc4c3F)ccc(C(F)(F)F)c2s1 [Compound 143] | < 500 nM | 500 to 5000 nM
17 | Nc1cc2ccccc2c(-c2c(Cl)cc3c(N4CC5CCC(C4)N5)nc(OCC45CCCN4CCC5)nc3c2F)n1 [Compound 116] | 500 to 5000 nM | > 5000 nM

Row | SMILES | Kd [1] | GI50 (Ba/F3_KRAS^G12D cells)
18 | Nc1cccc(F)c1-c1c(Cl)cc2c(N3CCNCC3)nc(OCC34CCCN3CCC4)nc2c1F [Compound 14] | > 5000 nM | > 5000 nM
19 | Oc1cc(-c2c(Cl)cc3c(N4CC5CCC(C4)N5)nc(OC[C@]45CCCN4C[C@@H](F)C5)nc3c2F)c2ccccc2c1 (single isomer, unassigned) [Compound 106] | < 500 nM | < 500 nM
20 | Fc1c(-c2cccc3cccc(Cl)c23)c(Cl)cc2c(N3CC4CCC(C3)N4)nc(OCC34CCCN3CCC4)nc12 [Compound 64] | 500 to 5000 nM | < 500 nM
21 | N#Cc1cc2c(N3CC4CCC(C3)N4)nc(OC[C@@]34CCCN3C[C@H](F)C4)nc2c(F)c1-c1c(N)cccc1F [Compound 91] | > 5000 nM | 500 to 5000 nM
22 | CNC(=O)c1cc2c(N3CC4CCC(C3)N4)nc(OC[C@@]34CCCN3C[C@H](F)C4)nc2c(F)c1-c1cc(O)cc2cccc(Cl)c12 [Compound 122] | < 500 nM | > 5000 nM
23 | C[C@H]1CNCCN1c1nc(OC[C@@]23CCCN2C[C@H](F)C3)nc2c(F)c(-c3cc(O)cc4ccccc34)c(Cl)cc12 [Compound 127] | 500 to 5000 nM | 500 to 5000 nM
24 | Oc1cc(-c2c(Cl)cc3c(N4CC5CCC(C4)N5)nc(OCCN4CCCC4)nc3c2F)c2ccccc2c1 [Compound 78] | > 5000 nM | 500 to 5000 nM
25 | Oc1cc(-c2c(Cl)cc3c(N4CC5CCC(C4)N5)nc(OC[C@]45CCCN4C[C@@H](F)C5)nc3c2F)c2c(Cl)cccc2c1 (single isomer, unassigned) [Compound 101] | < 500 nM | < 500 nM
26 | CN1CCC2CN(c3nc(N4CC5CCC(C4)N5)c4cc(Cl)c(-c5cc(O)cc6ccccc56)c(F)c4n3)CC2C1 (centres unmarked) [Compound 43] | > 5000 nM | 500 to 5000 nM
27 | CCc1cccc2cc(O)cc(-c3c(Cl)cc4c(N5CC6CCC(C5)N6)nc(OC[C@@]56CCCN5C[C@H](F)C6)nc4c3F)c12 (racemic) [Compound 77] | < 500 nM | < 500 nM
28 | N#Cc1cc2c(N3CC4CCC(C3)N4)nc(OC[C@@]34CCCN3C[C@H](F)C4)nc2c(F)c1-c1cccc2cccc(Cl)c12 [Compound 89] | 500 to 5000 nM | 500 to 5000 nM
29 | Cc1cccc2cc(O)cc(-c3c(Cl)cc4c(N5CC6CCC(C5)N6)nc(OC[C@@]56CCCN5C[C@H](F)C6)nc4c3F)c12 [Compound 47] | < 500 nM | < 500 nM
30 | CN1CCC[C@H]1COc1nc(-c2cnc(N)s2)c2cc(Cl)c(-c3cc(O)cc4cccc(Cl)c34)c(F)c2n1 [Compound 121] | > 5000 nM | > 5000 nM
31 | C#Cc1c(F)ccc2cc(O)cc(-c3c(Cl)cc4c(N5CC6CCC(C5)N6)nc(OC[C@@]56CCCN5C[C@H](F)C6)nc4c3F)c12 (single isomer, unassigned) [Compound 154] | < 500 nM | < 500 nM
32 | Oc1cc(-c2c(Cl)cc3c(N4CC5CCC(C4)N5)nc(OC[C@]45CCCN4C[C@@H](F)C5)nc3c2F)c2ccccc2c1 (single isomer, unassigned) [Compound 105] | > 5000 nM | 500 to 5000 nM
33 | CN1CCC[C@H]1COc1nc(N2CC3(CCNC3)C2)c2cc(Cl)c(-c3cc(O)cc4cccc(Cl)c34)c(F)c2n1 [Compound 19] | > 5000 nM | > 5000 nM
34 | Oc1cc(-c2c(Cl)cc3c(N4CC5CCC(C4)N5)nc(OCC45CCCN4CC(F)(F)C5)nc3c2F)c2ccccc2c1 (centres unmarked) [Compound 81] | < 500 nM | 500 to 5000 nM
